Experimental findings from patent US10660835B2, “Method for hair frizz reduction” (The Procter & Gamble Company, priority 2015, dated 2020) are described below.

SMILES strings stand for the structures.

The experiment can be described thus: DVS water uptake after soaking treatment. The following applies: pH 4.2, 40 deg C, at 90% RH. The method, then:
The Moisture Control Material is added into a 50:50 ethanol:water solvent at a concentration of 2% w/w and mixed until completely dissolved. The solution pH is adjusted with sodium hydroxide (50% w/w) to a final pH of 4.2. The soaking solution is kept at 40 deg C. for 2 hrs until a uniform composition is obtained.
One hair switch of natural virgin brown hair is placed in 200 ml of this solution for 2 hours in an oven set at 40° C. After the 2-hour period, the hair is removed, air dried and then tested for moisture uptake using DVS. For the control experiment, a natural brown virgin hair switch of the same weight is placed in a 50:50 ethanol:water solvent and treated under identical conditions.
The % water reduction is calculated as follows: […]
Hair is soaked in active solution of pH 4.2 for different intervals of time from 10 min to 2 hrs at 40 deg C. Hair Switches are air dried and prepared for % water reduction measurement using DVS vs. control (no active).

On to `O=C(O)c1cc(Cl)ccc1O` [5-Chlorosalicylic acid], for which the “% water reduction vs control” value reads like this: (10 min soaking) 9.6%; (20 min soaking) 14.8%; (30 min soaking) 19%; (1 hr soaking) 26%; (2 hr soaking) 30%.
